Test system: co-culture of HLA-A2 positive monocytes and HLA-A2 negative HUVECs
Assay: Co-culture of PBMC-derived monocytes with HUVECs: endothelial incorporation of monocyte-derived EC-like cells (flow cytometry, HLA-A2)
Format: cell-based, human
Settings: day 3; for proportion of HLA-A2 positive cells of the total cell population: no apoA-I control about 15%; for endothelial incorporation of HLA-A2 positive monocyte-derived endothelial-like cells into the HUVECs layer (effect in words): apoA-I 0.25, 0.5 and 2.0 mg/ml
Procedure: Human umbilical vein ECs (HUVEC) were isolated from human umbilical veins using collagenase digestion. Briefly, umbilical cords from normal or caesarean deliveries are collected and perfused with Ca^2+ and Mg^2+-free phosphate buffer saline (PBS). HUVECs were removed by short treatment at 37° C. with collagenase solution (0.1% in PBS with Ca^2+ and Mg^2+). HUVECS were cultured and expanded for use in investigation at no later than passage 4. Cells were grown under standard culture conditions of 37° C. in a 95% air/5% CO2 atmosphere in M199 media (Cell Applications or Invitrogen Australia) supplemented with 10% foetal bovine serum (FBS; Trace Bioscience, or Invitrogen Australia) or with 10% heat-inactivated human serum and with a D-glucose concentration of 5.0 mM. The human serum was obtained from healthy donors within 7 days of the experiment. The human serum was filtered with 0.22 μm PES membrane (Millipore) and heat inactivated at 56° C. for 30 minutes.
The ECs were screened for human leucocyte antigen-A2 type (HLA-A2) expression with direct immunofluorescence and flow cytometry (Beckman Coulter). The batches of HUVEC cells that were HLA-A2 negative were used in these investigations. Alternatively, batches of HACECs that are HLA-A2 negative are used in these investigations. The batches of HLA-A2 negative HUVECs preferably at second passage were grown to approximately 75% sub-confluence on 6-wells cell culture plates (Becton Dickinson Labware, growth area 9.6 cms^2 per well) at a density varying from 10,000 to 500,000 cells per well 24 hours before the co-culture. Usually a density of 500,000 cells per well is needed to achieve a fully confluent layer of HUVECS. Alternatively, batches of HLA-A2 negative HCAECs preferably at second passage are grown to approximately 75% sub-confluence on 6-wells cell culture plates (Bectin Dickinson Labware).
Fresh peripheral blood mononuclear cells (PBMCs) were obtained from venous blood of healthy HLA-A2 positive donors (n=5) by gradient centrifugation on Lymphoprep in a hypertonic medium (Lymphoprep™) and immediately seeded onto HUVECs. Alternatively, the PBMCs are immediately seeded onto HCAECs layers at densities ranging from 0.25 to 2×10^6 cells per well. […] The co-cultured cell layer containing HUVECs were detached at multiple time points between day 0 and day 6 by addition of 20 μl of detachment solution containing 0.12% trypsin and analyzed by direct immunofluoresence and flow cytometry inter alia for expression of cell surface markers. […]
Expression of cell surface markers was analyzed by two-colors direct immunofluoresence and flow cytometry (Cytomics FC500, Beckman Coulter). […]

apolipoprotein A-I [apoA-I]
proportion of HLA-A2 positive cells of the total cell population (0.5 mg/ml apoA-I in co-culture, t test P<0.01): about 33% | proportion of HLA-A2 positive cells of the total cell population (2.0 mg/ml apoA-I in co-culture): about 37% | endothelial incorporation of HLA-A2 positive monocyte-derived endothelial-like cells into the HUVECs layer (effect in words): dose dependent increase | endothelial incorporation of HLA-A2 positive monocyte-derived endothelial-like cells into the HUVECs layer (effect in words) (listed as ApoA-I): increased endothelial incorporation
